In data set [1] the target is T1, Muscarinic acetylcholine receptor M4 (Rattus norvegicus) (UniProt P08485).
T1 sequence (whole entry): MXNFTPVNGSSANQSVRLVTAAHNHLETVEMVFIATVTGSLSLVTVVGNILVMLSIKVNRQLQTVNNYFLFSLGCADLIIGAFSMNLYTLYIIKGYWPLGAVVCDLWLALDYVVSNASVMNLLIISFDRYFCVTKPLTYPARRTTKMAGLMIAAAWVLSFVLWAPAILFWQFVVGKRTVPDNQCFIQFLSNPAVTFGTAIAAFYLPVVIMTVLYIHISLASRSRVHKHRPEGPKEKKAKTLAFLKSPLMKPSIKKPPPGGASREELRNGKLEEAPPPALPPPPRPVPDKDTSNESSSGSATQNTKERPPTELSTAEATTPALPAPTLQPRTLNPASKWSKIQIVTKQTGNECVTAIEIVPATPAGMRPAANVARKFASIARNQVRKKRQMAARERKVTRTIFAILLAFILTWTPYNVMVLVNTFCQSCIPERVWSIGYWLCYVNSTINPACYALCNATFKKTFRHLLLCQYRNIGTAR
The experiment in a line: Positive allosteric modulation of rat M4 receptor expressed in CHO cells co-expressing Gqui5 by calcium mobilization assay relative to acetylcholine. Format: functional, cell-based.

Data set [2] addresses T2, Muscarinic acetylcholine receptor M4 (Homo sapiens) (UniProt P08173).
T2 sequence (whole entry): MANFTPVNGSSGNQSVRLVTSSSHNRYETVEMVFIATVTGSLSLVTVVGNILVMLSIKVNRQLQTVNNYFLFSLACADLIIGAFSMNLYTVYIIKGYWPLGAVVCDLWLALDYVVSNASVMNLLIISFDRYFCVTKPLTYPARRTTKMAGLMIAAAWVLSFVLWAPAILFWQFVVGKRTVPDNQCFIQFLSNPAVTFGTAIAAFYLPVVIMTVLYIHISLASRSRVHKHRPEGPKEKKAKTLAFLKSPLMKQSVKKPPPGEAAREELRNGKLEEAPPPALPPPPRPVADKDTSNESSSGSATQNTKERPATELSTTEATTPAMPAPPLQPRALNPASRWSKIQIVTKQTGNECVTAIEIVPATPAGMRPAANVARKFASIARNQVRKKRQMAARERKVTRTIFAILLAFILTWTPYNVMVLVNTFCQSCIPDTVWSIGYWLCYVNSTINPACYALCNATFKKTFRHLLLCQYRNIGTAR
Description: Positive allosteric modulation of human M4 receptor expressed in CHO cells co-expressing Gqui5 by calcium mobilization assay relative to acetylcholine. In kind it is functional, cell-based.

Data set [3] is described as follows: Intrinsic clearance in human. In kind it is ADME.
For another data set, the target named is Cytochrome P450 2C9 (Homo sapiens, UniProt P11712). The experiment in a line: Inhibition of CYP2C9 (unknown origin). Format: ADME.
Cytochrome P450 2C9, sequence (P11712 whole entry): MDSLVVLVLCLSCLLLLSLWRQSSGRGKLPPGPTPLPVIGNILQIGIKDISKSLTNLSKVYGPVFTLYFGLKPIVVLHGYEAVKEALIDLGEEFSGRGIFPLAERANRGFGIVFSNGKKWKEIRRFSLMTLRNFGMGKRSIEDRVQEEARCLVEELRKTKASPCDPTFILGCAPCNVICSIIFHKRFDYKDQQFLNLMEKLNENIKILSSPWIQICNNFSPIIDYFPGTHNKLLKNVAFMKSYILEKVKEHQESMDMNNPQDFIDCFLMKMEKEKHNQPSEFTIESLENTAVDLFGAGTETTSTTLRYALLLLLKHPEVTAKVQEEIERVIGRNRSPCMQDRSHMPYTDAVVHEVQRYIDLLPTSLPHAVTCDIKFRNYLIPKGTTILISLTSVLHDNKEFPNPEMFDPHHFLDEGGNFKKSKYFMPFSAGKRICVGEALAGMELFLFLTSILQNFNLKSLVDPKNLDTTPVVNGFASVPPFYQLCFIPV
The next data set concerns the target Cytochrome P450 2D6 (Homo sapiens, UniProt P10635). Description: Inhibition of CYP2D6 (unknown origin). In kind it is ADME.
A further data set has as its target Cytochrome P450 3A4 (Homo sapiens, UniProt P08684). The experiment in a line: Inhibition of CYP3A4 (unknown origin). In kind it is ADME.
Data set [4] can be described thus: Half life in Sprague-Dawley rat at 1 mg/kg, iv. Format: ADME, organism-based. The note with it: in vivo; for half-life: Sprague-Dawley.
Data set [5] is described as follows: Volume of distribution at steady state in Sprague-Dawley rat at 1 mg/kg, iv. Format: ADME, organism-based. The conditions noted are these: in vivo; for Vd: Sprague-Dawley, read-out: Vdss.
The nature of data set [6]: Ratio of unbound concentration in brain to plasma in Sprague-Dawley rat at 1 mg/kg, ip at 0.25 hrs. In kind it is ADME, organism-based.
For data set [7], the target named is T3, Muscarinic acetylcholine receptor M1 (Homo sapiens, UniProt P11229).
T3 sequence (P11229 whole entry): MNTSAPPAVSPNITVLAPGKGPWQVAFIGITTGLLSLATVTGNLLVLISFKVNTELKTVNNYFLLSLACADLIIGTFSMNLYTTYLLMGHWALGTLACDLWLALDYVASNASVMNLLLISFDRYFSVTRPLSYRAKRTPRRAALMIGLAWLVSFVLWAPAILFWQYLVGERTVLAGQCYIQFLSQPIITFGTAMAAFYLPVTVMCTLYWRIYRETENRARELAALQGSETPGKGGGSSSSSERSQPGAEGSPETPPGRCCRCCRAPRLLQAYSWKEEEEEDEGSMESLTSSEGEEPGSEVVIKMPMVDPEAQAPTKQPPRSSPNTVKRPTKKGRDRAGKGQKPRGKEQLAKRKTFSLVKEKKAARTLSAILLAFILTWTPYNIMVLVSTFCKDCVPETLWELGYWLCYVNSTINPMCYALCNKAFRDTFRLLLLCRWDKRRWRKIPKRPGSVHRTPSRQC
Description: Displacement of [3H]-N-Methylscopolamine from human M1 receptor expressed in CHOK1 cells. In kind it is cell-based, CHO-K1.

In data set [8] the target is T4, Muscarinic acetylcholine receptor M2 (Homo sapiens, UniProt P08172).
T4 sequence (P08172 whole entry): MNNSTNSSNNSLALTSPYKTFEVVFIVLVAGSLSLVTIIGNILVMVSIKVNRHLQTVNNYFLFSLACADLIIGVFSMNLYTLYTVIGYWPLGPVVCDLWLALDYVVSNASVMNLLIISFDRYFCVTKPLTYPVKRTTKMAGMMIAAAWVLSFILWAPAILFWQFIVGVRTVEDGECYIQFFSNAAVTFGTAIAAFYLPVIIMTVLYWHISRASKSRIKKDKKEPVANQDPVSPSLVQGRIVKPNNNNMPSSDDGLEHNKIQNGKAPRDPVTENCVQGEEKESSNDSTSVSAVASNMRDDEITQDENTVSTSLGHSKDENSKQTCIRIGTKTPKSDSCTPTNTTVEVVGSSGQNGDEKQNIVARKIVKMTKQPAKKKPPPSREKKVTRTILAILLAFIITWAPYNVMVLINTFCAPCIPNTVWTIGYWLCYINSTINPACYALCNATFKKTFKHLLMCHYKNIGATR
Description: Displacement of [3H]-N-Methylscopolamine from human M2 receptor expressed in CHOK1 cells. Format: cell-based, CHO-K1.

Data set [9] concerns the target T5, Muscarinic acetylcholine receptor M2 (Rattus norvegicus, UniProt P10980).
T5 sequence (P10980 whole entry): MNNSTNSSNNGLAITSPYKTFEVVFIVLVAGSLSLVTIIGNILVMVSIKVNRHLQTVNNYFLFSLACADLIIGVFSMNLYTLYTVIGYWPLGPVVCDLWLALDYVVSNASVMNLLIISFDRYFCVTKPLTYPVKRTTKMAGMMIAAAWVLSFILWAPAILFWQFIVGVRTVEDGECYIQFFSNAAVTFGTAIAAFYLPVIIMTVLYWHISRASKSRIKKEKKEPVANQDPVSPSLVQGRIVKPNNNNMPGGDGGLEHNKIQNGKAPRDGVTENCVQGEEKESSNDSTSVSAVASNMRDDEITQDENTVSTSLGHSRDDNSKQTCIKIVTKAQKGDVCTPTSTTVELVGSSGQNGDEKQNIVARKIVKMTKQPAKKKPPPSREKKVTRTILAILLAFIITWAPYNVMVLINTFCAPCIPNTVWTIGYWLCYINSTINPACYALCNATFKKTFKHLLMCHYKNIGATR
The experiment in a line: Binding affinity to rat M2 receptor by radio-ligand binding assay.

Data set [10] addresses Muscarinic acetylcholine receptor M3 (Rattus norvegicus, UniProt P08483). Description: Binding affinity to rat M3 receptor by radio-ligand binding assay.

This note sets out measurements from ChEMBL document CHEMBL3872258, “Challenges in the development of an M4 PAM in vivo tool compound: The discovery of VU0467154 and unexpected DMPK profiles of close analogs” (Bioorg Med Chem Lett, 2017).

Muscarinic acetylcholine receptor M3, sequence (P08483 whole entry): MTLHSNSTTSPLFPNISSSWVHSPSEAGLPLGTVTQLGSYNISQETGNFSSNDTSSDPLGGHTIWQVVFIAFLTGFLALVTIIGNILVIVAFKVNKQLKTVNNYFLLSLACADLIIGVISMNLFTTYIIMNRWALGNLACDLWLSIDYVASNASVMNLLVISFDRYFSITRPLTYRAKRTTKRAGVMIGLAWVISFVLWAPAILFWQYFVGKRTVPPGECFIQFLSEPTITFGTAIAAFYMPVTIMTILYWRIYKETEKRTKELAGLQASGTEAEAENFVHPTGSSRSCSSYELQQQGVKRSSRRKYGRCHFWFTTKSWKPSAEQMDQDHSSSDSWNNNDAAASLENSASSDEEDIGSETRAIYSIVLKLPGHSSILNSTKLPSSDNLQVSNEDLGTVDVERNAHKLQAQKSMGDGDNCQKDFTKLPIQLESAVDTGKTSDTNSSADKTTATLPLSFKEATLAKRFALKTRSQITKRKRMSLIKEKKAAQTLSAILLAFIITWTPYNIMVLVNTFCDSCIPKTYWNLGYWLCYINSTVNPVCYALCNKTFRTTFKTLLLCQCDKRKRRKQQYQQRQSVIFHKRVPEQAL
Cytochrome P450 3A4, sequence (P08684 whole entry): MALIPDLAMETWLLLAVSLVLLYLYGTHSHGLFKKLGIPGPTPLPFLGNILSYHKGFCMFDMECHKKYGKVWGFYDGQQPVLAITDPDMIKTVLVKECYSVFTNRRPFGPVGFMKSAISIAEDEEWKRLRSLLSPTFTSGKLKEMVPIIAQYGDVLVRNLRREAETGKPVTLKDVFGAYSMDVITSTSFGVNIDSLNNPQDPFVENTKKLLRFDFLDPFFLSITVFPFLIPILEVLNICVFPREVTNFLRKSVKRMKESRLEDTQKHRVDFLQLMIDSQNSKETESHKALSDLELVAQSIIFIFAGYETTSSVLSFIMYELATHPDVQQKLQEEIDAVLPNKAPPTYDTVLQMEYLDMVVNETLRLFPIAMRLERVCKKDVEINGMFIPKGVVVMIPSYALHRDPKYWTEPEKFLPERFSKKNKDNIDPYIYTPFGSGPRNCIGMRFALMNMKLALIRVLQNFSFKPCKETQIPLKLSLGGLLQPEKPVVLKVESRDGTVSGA
Cytochrome P450 2D6, sequence (P10635 whole entry): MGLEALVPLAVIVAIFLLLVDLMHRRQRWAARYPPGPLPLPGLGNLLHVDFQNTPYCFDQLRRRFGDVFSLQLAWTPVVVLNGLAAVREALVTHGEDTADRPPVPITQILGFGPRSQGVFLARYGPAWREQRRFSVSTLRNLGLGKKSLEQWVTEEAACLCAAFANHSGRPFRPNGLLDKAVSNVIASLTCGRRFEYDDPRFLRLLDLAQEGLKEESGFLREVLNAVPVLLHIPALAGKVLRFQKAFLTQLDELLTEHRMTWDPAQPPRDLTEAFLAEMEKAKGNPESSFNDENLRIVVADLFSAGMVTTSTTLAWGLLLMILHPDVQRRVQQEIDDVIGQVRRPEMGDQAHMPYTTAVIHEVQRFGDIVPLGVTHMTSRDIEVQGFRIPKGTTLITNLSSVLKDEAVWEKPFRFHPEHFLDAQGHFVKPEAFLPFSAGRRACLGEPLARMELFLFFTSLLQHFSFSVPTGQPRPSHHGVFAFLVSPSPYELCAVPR

Consider `Cc1nnc2sc(C(=O)NCc3ccc(S(=O)(=O)C(F)(F)F)cc3)c(N)c2c1C`, for which the figures for the Emax in data set [1] and in data set [2] were 68.1% and 56.4%, respectively. The CLint scaled in data set [3] came out at 19.8 mL/min/kg. The IC50 at Cytochrome P450 2C9, against Cytochrome P450 2D6 and on Cytochrome P450 3A4 was above 30 µM each time. The compound further showed a t1/2 in data set [4] of 5.7 h. Besides, the Vdss in data set [5] came to 3.1 L/kg. Besides, in data set [6], the “K(p,uu,brain)” value is given as 1.1. The EC50 in [7], in data set [8], in data set [9] and in data set [10] was above 30 µM each time.

Turning to `Cc1nnc2sc(C(=O)NCc3ccc(S(=O)(=O)C(F)F)cc3)c(N)c2c1C`, the Emax stood at 65.2% in data set [1] and 72.8% in data set [2]. The compound also displayed a CLint scaled in [3] of 15.6 mL/min/kg. The IC50 was above 30 µM at Cytochrome P450 2C9, 20.8 µM at Cytochrome P450 2D6 and above 30 µM at Cytochrome P450 3A4. Further, the half-life in data set [4] is 2.4 h. The Vd in [5] is 2.9 L/kg. The “K(p,uu,brain)” value in data set [6] is on record as 0.1. Also, the EC50 in data set [7], in data set [8], in data set [9] and in [10] was above 30 µM each time.

Regarding `Cc1nnc2sc(C(=O)NCc3ccc(S(F)(F)(F)(F)F)cc3)c(N)c2c1C`, the results for the maximal response (Emax) in data set [1] and in [2] were 75.7% and 66.1%, respectively. In data set [3], the CLint scaled came out at 52.8 mL/min/kg. The IC50 at Cytochrome P450 2C9 was above 30 µM; at Cytochrome P450 2D6, 23.9 µM; against Cytochrome P450 3A4 it was above 30 µM. In data set [4], this compound had a half-life of 3.6 h. The Vd in data set [5] came to 3.1 L/kg. Also, in data set [6], the “K(p,uu,brain)” value is 0.75. Further, the EC50 in [7], in [8], in [9] and in data set [10] was above 30 µM in each case.
